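96-well plates; 48 h exposure; 5 concentrations. Endpoints by linear interpolation between flanking doses. Not reached: highest tested concentration assigned. The concentration for 50% growth inhibition is given as GI50. TGI: total growth inhibition.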
How the values were obtained:
Test in all cases: DTP human tumour cell line panel, 48 h
[1] = tested on: 786-0 renal
[2] = tested on: ACHN renal
[3] = tested on: NCI/ADR-RES ovarian
[4] = tested on: K-562 leukemia
[5] = tested on: PC-3 prostate
[6] = tested on: T-47D breast
[7] = tested on: IGROV1 ovarian
[8] = tested on: NCI-H23 lung
[9] = tested on: DU-145 prostate
[10] = tested on: LOX IMVI melanoma
[11] = tested on: SF-295 CNS
[12] = tested on: RPMI-8226 leukemia
[13] = tested on: SF-539 CNS
[14] = tested on: SW-620 colon
[15] = tested on: M14 melanoma
[16] = tested on: A549 NSCLC
[17] = tested on: NCI-H460 lung
[18] = tested on: SK-MEL-28 melanoma
[19] = tested on: MDA-MB-231 breast
[20] = tested on: MDA-MB-435
[21] = tested on: HCT-116 colon
[22] = tested on: HS 578T breast
[23] = tested on: MALME-3M melanoma
[24] = tested on: SR leukemia
[25] = tested on: OVCAR-8 ovarian
[26] = tested on: UACC-257 melanoma
[27] = tested on: BT-549 breast
[28] = tested on: MCF7 breast
[29] = tested on: NCI-H226 lung
[30] = tested on: SF-268 CNS
[31] = tested on: SNB-75 CNS
[32] = tested on: U251 CNS
[33] = tested on: EKVX NSCLC
[34] = tested on: SK-MEL-5 melanoma
[35] = tested on: MOLT-4 leukemia
[36] = tested on: HT29 colon
[37] = tested on: CCRF-CEM leukemia
[38] = tested on: RXF 393 renal
[39] = tested on: COLO 205 colon
[40] = tested on: SNB-19 CNS
[41] = tested on: HOP-62 NSCLC
[42] = tested on: CAKI-1 renal
[43] = tested on: UO-31 renal
[44] = tested on: HCC-2998 colon
[45] = tested on: NCI-H522 lung
[46] = tested on: SN12C renal
[47] = tested on: UACC-62 melanoma
[48] = tested on: OVCAR-4 ovarian
[49] = tested on: HL-60(TB) leukemia
[50] = tested on: SK-MEL-2 melanoma
[51] = tested on: HOP-92 NSCLC
[52] = tested on: TK-10 renal
[53] = tested on: KM12 colon
[54] = tested on: SK-OV-3 ovarian
[55] = tested on: HCT-15 colon
[56] = tested on: OVCAR-5 ovarian

`C=C(C=O)[C@@H]1CC[C@]2(C)[C@H](CC=C3[C@H]4[C@@H](C)[C@H](C)CC[C@]4(C(=O)OC)CC[C@]32C)[C@@]1(C)CCC#N` was tested, and the GI50 [1] was 1730 nM, the TGI [1] was 3290 nM and the GI50 [2] was 1640 nM. The TGI [2] was 3020 nM, the GI50 [3] was 1950 nM and the TGI [3] was 4580 nM. It also gave a GI50 [4] of 2830 nM, a TGI [4] greater than 100000 nM and a GI50 [5] of 1200 nM. The TGI [5] was 3100 nM, the GI50 [6] was 1340 nM and the TGI [6] was 5540 nM. For the same compound, the GI50 [7] was 1820 nM, the TGI [7] was 3750 nM and the GI50 [8] was 1810 nM. The TGI [8] was 3590 nM, the GI50 [9] was 1940 nM and the TGI [9] was 3750 nM. For the same compound, the GI50 [10] was 1610 nM, the TGI [10] was 3080 nM and the GI50 [11] was 1340 nM. It also gave a TGI [11] of 2670 nM, a GI50 [12] of 1610 nM and a TGI [12] of 5710 nM. The GI50 [13] was 1930 nM, the TGI [13] was 3490 nM and the GI50 [14] was 1760 nM. The TGI [14] was 3360 nM, the GI50 [15] was 1790 nM and the TGI [15] was 3840 nM. For the same compound, the GI50 [16] was 3490 nM, the TGI [16] was 14800 nM and the GI50 [17] was 1880 nM. For the same compound, the TGI [17] was 3540 nM, the GI50 [18] was 1810 nM and the TGI [18] was 3330 nM. For the same compound, the GI50 [19] was 1790 nM, the TGI [19] was 3760 nM and the GI50 [20] was 1810 nM. For the same compound, the TGI [20] was 3530 nM, the GI50 [21] was 1490 nM and the TGI [21] was 3050 nM. For the same compound, the GI50 [22] was 2530 nM, the TGI [22] was 5980 nM and the GI50 [23] was 1960 nM. It also gave a TGI [23] of 3690 nM, a GI50 [24] of 1860 nM and a TGI [24] greater than 100000 nM. The GI50 [25] was 1900 nM, the TGI [25] was 3890 nM and the GI50 [26] was 1820 nM. It also gave a TGI [26] of 3530 nM, a GI50 [27] of 1620 nM and a TGI [27] of 3240 nM. The GI50 [28] was 1610 nM, the TGI [28] was 4090 nM and the GI50 [29] was 1810 nM. For the same compound, the TGI [29] was 3940 nM, the GI50 [30] was 1990 nM and the TGI [30] was 3570 nM. For the same compound, the GI50 [31] was 1550 nM, the TGI [31] was 3010 nM and the GI50 [32] was 1680 nM. The TGI [32] was 3120 nM, the GI50 [33] was 1890 nM and the TGI [33] was 3710 nM. For the same compound, the GI50 [34] was 1740 nM, the TGI [34] was 3140 nM and the GI50 [35] was 2660 nM. For the same compound, the TGI [35] was 12600 nM, the GI50 [36] was 1590 nM and the TGI [36] was 3470 nM. It also gave a GI50 [37] of 1420 nM, a TGI [37] of 9470 nM and a GI50 [38] of 1990 nM. The TGI [38] was 3550 nM, the GI50 [39] was 1800 nM and the TGI [39] was 3550 nM. The GI50 [40] was 1940 nM, the TGI [40] was 4160 nM and the GI50 [41] was 1960 nM. It also gave a TGI [41] of 3900 nM, a GI50 [42] of 1560 nM and a TGI [42] of 3160 nM. The GI50 [43] was 1480 nM, the TGI [43] was 2810 nM and the GI50 [44] was 1630 nM. The TGI [44] was 3110 nM, the GI50 [45] was 1760 nM and the TGI [45] was 3310 nM. For the same compound, the GI50 [46] was 1820 nM, the TGI [46] was 3830 nM and the GI50 [47] was 1590 nM. For the same compound, the TGI [47] was 3590 nM, the GI50 [48] was 3070 nM and the TGI [48] was 10700 nM. For the same compound, the GI50 [49] was 2260 nM, the TGI [49] was 5950 nM and the GI50 [50] was 1710 nM. It also gave a TGI [50] of 3210 nM, a GI50 [51] of 1300 nM and a TGI [51] of 2640 nM. For the same compound, the GI50 [52] was 1610 nM, the TGI [52] was 3320 nM and the GI50 [53] was 1600 nM. The TGI [53] was 3060 nM, the GI50 [54] was 2390 nM and the TGI [54] was 5260 nM. For the same compound, the GI50 [55] was 1470 nM, the TGI [55] was 3070 nM and the GI50 [56] was 2160 nM. For the same compound, the TGI [56] was 4890 nM.

— PubChem BioAssay (NCI)
